Results on one compound are retold here after patent publication US9616006B2, “Methods and compositions for treating dermatological diseases and conditions” (priority 2007, dated 2017).

For one experiment, the system named is PGE2. As to the kind of experiment: UV-induced PGE2 production in keratinocytes (ELISA). Format: cell-based, human. Particulars: Homo sapiens, Keratinocyte; Keratinocytes (UV); 100 uM; read-out: Percent Inhibition of PGE2. The procedure:
(§1) In one study, various concentrations of DHE were added to culture medium and these media were placed on human fibroblast cell cultures (results shown in FIG. 1). Cells were either not induced or induced with UVB radiation to stimulate cytokine/PGE-2 production. At 24 hours after treatment, the cell culture medium was removed and assayed by ELISA methods for the expression of PGE-2, various cytokines and chemokines.
(§2) When similar experiments were carried out with human keratinocytes, DHE was again found to markedly suppress the UVR induction of PGE-2, with a concentration of 50 uM inhibiting the production of PGE-2 by over 60% (results shown in FIG. 2). […] Further, since PGE-2 is known to be a principal factor in the development of actinic keratosis and skin cancer, DHE can also be used in treating these conditions.
(§3) DHE and IE both have inhibitory effects on production of the inflammatory mediators in keratinocytes.

The test system of experiment [1] is IL-12. The experiment in a line: TNF-α-induced IL-12 production in monocytes. Format: cell-based. Particulars: Monocyte, read-out: Percent Inhibition of IL-12. The source says:
(§4) DHE and IE both have inhibitory effects on the production of the inflammatory mediators in monocytes.

The next experiment concerns MCP-1. As to the kind of experiment: LPS-induced MCP-1 production in monocytes. It is filed as cell-based. Particulars: Monocyte; Monocytes (LPS); 100 uM; read-out: Percent Inhibition of MCP-1.
Description: as §4

In a further experiment the test system is elastin mRNA. As to the kind of experiment: Elastin mRNA in human dermal fibroblasts by RT-PCR. Format: cell-based. The following applies: 72 hours. The text has this: The presently claimed and disclosed inventive concept(s) further contemplates use of various DHE, IE and EV compositions and salts, esters, ethers, and derivatives thereof to mitigate the effects of aging on the skin. For all aging studies, normal human fibroblast cell cultures were used. These cells normally produce collagen, elastin and hyaluronic acid. As the skin ages, the fibroblasts in the dermis lose their ability to produce these three key components of skin, and the skin consequently loses elasticity, thickness and smooth texture. […] There are about 13 of these enzymes, collectively referred to as MMPs (matrix metalloproteinases). One of the principal MMPs, MMP-1, is responsible for collagen degradation. […] The image is from an electrophoresis gel of DNA amplified by PCR from fibroblast mRNA. This gel was analyzed and the density of each band quantified by image analysis software.

Experiment [2] relates to IL-8. The experiment in a line: UV-induced IL-8 production in keratinocytes (ELISA). Particulars: Homo sapiens, Keratinocyte, read-out: Percent Inhibition of IL-8. It is filed as cell-based, human. The procedure: as §1, §2, §3
The test system of experiment [3] is TNF-α. As to the kind of experiment: TPA-induced TNF-α production in keratinocytes (ELISA). Particulars: Homo sapiens, Keratinocyte; Keratinocytes (TPA); 100 uM; read-out: Percent Inhibition of TNF-α. It is filed as cell-based, human. The procedure:
as §1, §2
Inflammatory mediators produced in the skin contribute to the development and propagation of such diseases as rosacea, psoriasis and atopic dermatitis. While many inflammatory mediators are involved in these diseases, TNF-α is known to be a major cytokine involved in psoriasis. For atopic dermatitis, TNF-α, IL-8, and MCP-1 are important mediators of inflammation in these diseases. DHE is effective in suppressing the TPA-induced (TPA is tetradecanolyl phorbol ester) production of TNF-α by approximately 50% at a 100 micromolar concentration (results shown in FIG. 3).
as §3

The subject of experiment [4] is IL-12. As to the kind of experiment: LPS-induced IL-12 production in monocytes. It is filed as cell-based. The following applies: Monocyte, read-out: Percent Inhibition of IL-12.
Description: as §4

Experiment [5] deals with HAS-2 (Hyaluronic acid synthase-2). The experiment in a line: HAS-2 mRNA in fibroblasts by RT-PCR. Format: cell-based, human. Particulars: 72 hours. The source says:
(§5) The presently claimed and disclosed inventive concept(s) further contemplates use of various DHE, IE and EV compositions and salts, esters, ethers, and derivatives thereof to mitigate the effects of aging on the skin. For all aging studies, normal human fibroblast cell cultures were used. These cells normally produce collagen, elastin and hyaluronic acid. As the skin ages, the fibroblasts in the dermis lose their ability to produce these three key components of skin, and the skin consequently loses elasticity, thickness and smooth texture. In addition, as fibroblasts age, they increase the expression of certain enzymes that destroy collagen and elastin. There are about 13 of these enzymes, collectively referred to as MMPs (matrix metalloproteinases). One of the principal MMPs, MMP-1, is responsible for collagen degradation. For experiments herein to determine the effects of DHE, IE and EV on collagen, elastin and hyaluronic acid, fibroblasts were treated with the compounds for 72 hours, mRNA was then isolated, and analyzed for abundance by RT-PCR (Reverse transcriptase-Polymerase Chain Reaction).
DHE, IE and EV, are also shown herein to stimulate mRNA for HAS-2. HAS-2 (Hyaluronic acid synthase-2) is the enzyme that manufactures hyaluronic acid (HA) in the skin. HA is a glycosaminoglycan important for maintaining moisture and suppleness in the skin. […] As the skin ages, the production of HA decreases and this causes the skin to sag and become thin.

For experiment [6], the system named is IL-6. As to the kind of experiment: UV-induced IL-6 production in fibroblasts (ELISA). It is filed as cell-based, human. Particulars: Homo sapiens, Fibroblast, read-out: Percent Inhibition of IL-6. The procedure: as §1
(§6) DHE and IE both have inhibitory effects on the production of the inflammatory mediators in fibroblasts.

Experiment [7] concerns IL-8. The experiment in a line: UV-induced IL-8 production in fibroblasts (ELISA). Format: cell-based, human. Particulars: Homo sapiens, Fibroblast, read-out: Percent Inhibition of IL-8. The procedure:
as §1, §6

Experiment [8] has as its system IL-8. The experiment in a line: TPA-induced IL-8 production in keratinocytes (ELISA). Format: cell-based, human. The following applies: Homo sapiens, Keratinocyte, read-out: Percent Inhibition of IL-8.
In another experiment the test system is TIMP-1. The experiment in a line: TIMP-1 mRNA in fibroblasts by PCR. It is filed as cell-based, human.
Description: as §5
Fibroblasts in the skin not only produce enzymes (MMPs) that destroy the skin matrix but they also produce proteins (Tissue Inhibitors of Metalloproteinases, i.e., TIMPS) that inhibit these enzymes. There are several TIMPs, but one that is most important for inhibiting MMPs is TIMP-1. […] Shown in FIG. 11 is PCR data showing the up-regulation of TIMP-1 mRNA by these compounds.

The test system of experiment [9] is IL-6. The experiment in a line: UV-induced IL-6 production in keratinocytes (ELISA). Format: cell-based, human. The following applies: Homo sapiens, Keratinocyte, read-out: Percent Inhibition of IL-6. The procedure:
as §1, §2, §3

Experiment [10] deals with TNF-α. The experiment in a line: LPS-induced TNF-α production in monocytes. It is filed as cell-based. The following applies: Monocyte; Monocytes (LPS); 100 uM; read-out: Percent Inhibition of TNF-α.
Description: as §4

Consider `CC=Cc1ccc(O)c(OC)c1` [IE, isoeugenol], for which the inhibition at 100 µM worked out at 76% in the experiment with PGE2; 100% in the experiment with IL-12 [1]; 87% in the experiment with MCP-1; 76% with IL-8 [2]; 71% in the experiment with TNF-α [3]; 80% in the experiment with IL-12 [4]. For the same compound, the inhibition at 100 µM in the experiment on IL-6 [6] was determined as 39%; in the experiment on IL-8 [7], 2%; in the experiment on IL-8 [8] it was 75%; with IL-6 [9], 93%; in the experiment with TNF-α [10], 80%. In addition, in the experiment with elastin mRNA, the “elastin levels (elastin mRNA)” value is “increase”. For the same compound, the “mRNA for HAS-2” value in [5] was “stimulate”. In addition, in the experiment on TIMP-1, the “production of TIMP-1 (TIMP-1 mRNA)” value is “significantly stimulate”.
